Results: US20090175995A1, “CONTROL OF FLAVOR CHARACTERISTICS OF AND INDICATOR OF FRESHNESS IN FRUIT JUICE” (TROPICANA PRODUCTS, INC., priority 2007, published 2009)
Read-outs that look alike come from different tables or passages of the source.

Experiments:
Astringency Taste = test: Astringency taste threshold, sensory; assay type: in vivo, human
Source text: The inventors have discovered that, as with bitterness, a plurality of compounds present in orange juice below the astringency threshold contributes to the astringent mouth feel of the juice.
(§1) To make these evaluations, eleven assessors (four women and seven men, age 23-39 years), who participated for at least two years in weekly training sessions, determined taste recognition threshold concentrations in bottled water (pH 5.1) by means of a three-alternative forced-choice method with ascending concentrations of the stimulus following the procedure reported previously in Stark, T.; Barenther, S.; Hofmann, T. (2005) J. Agric. Food Chem. 53:5407-5418.

Bitter Taste = test: Bitter taste recognition threshold, trained sensory panel; assay type: in vivo, human
Protocol: To study the influence of the chirality of C(17) on the sensory activity of these limonoids, bitter threshold concentrations were determined for limonin and C17-epilimonin.
as §1

[1] = Non-enzymatic release of limonin from limonin-17-β-D-glucopyranoside in aqueous solution on storage (HPLC-MS/MS); assay type: physicochemical; details: for limonin released from the glucopyranoside: up to 14 weeks in the dark; for limonin released from its precursor (yield): 14 weeks in the dark
Protocol: To investigate the putative non-enzymatic release of limonin from limonin-17-β-D-glucopyranoside during storage of orange juice, aqueous solutions of the glucopyranoside adjusted to the pH value of a freshly squeezed orange juice (pH 3.5) or to the range of pH values found for orange juice concentrates (pH 2.0 and 3.0) were held at 20° C. for up to 14 weeks in the dark. At regular time intervals, aliquots were withdrawn from the model solutions and analyzed for the amount of limonin liberated from the glucopyranoside by means of HPLC-MS/MS operating in the MRM mode. […] For example, 0.85% mol of limonin was released from the glucopyranoside when maintained at pH 2.0, whereas at pH 3.5 only 0.25% of the bitter compound was generated.
In order to investigate the influence of the temperature on limonin generation, aqueous solutions of the glucopyranoside adjusted to pH 3.0 were maintained at 4, 20, and 30° C. for up to 14 weeks in the dark. At regular time intervals, the amounts of limonin were determined by means of HPLC-MS/MS operating in the MRM mode. […] For example, limonin was released from its precursor in a yield of nearly 4.0% when incubated at 30° C., whereas only 0.2% of the bitter compound was detectable after storing the precursor solution at 4° C. for 14 weeks.
In particular, aqueous solutions of limonin-17-β-D-glucopyranoside (0.35 mg/L) adjusted to pH value of 2.0, 3.0, and 3.5, respectively, by adding trace amounts of hydrochloric acid (1 mol/L) were maintained at different temperatures (4, 20, 30° C.) for up to 14 weeks in closed vials in the dark. At regular time intervals, samples (5 μL) were withdrawn with a syringe and were analyzed for the generation of limonin by means of LC-MS/MS on a Synergi Fusion, 150×2 mm i.d., 4 μm column (Phenomenex). To achieve this, chromatography was performed with a flow rate of 250 μL/min starting with a mixture (80/20, v/v) of 0.1% aqueous formic acid and acetonitrile, increasing the acetonitrile content to 40% within 10 min, then to 80% within 5 min, held for 5 min, and, finally, to 100% within 5 min. Using negative electrospray ionization, limonin was analyzed in the multiple reaction monitoring (MRM) mode using the mass transition m/z 469→229. Quantitative analysis was performed by comparing the peak areas obtained for the mass trace with those of defined standard solutions of limonin in methanol.

[2] = Incubation of limonin in aqueous solution, formation of isolimonin; assay type: physicochemical; details: pH of 3
[3] = Homo sapiens; read-out: Astringency Taste Threshold
[4] = Homo sapiens; read-out: Bitter Taste Threshold

| Compound | minimal effective concentration (Astringency Taste; [3]) [µM] | minimal effective concentration (Bitter Taste; [4]) [µM] | Bitter Taste Threshold (Bitter Taste; in vivo) [µmol/L] | Astringency Taste Threshold (Astringency Taste; in vivo) [µmol/L] | other results |
| --- | --- | --- | --- | --- | --- |
| COc1ccc(-c2oc3cc(OC)c(OC)c(OC)c3c(=O)c2OC)cc1OC [3,5,6,7,3′,4′-hexamethoxyflavone] | 9 | 19 | – | – | – |
| Obacunon β-glpc | – | – | 49 | – | – |
| COc1ccc(-c2oc3cc(OC)c(OC)c(OC)c3c(=O)c2O[C@@H]2O[C@H](CO)[C@@H](O)[C@H](O)[C@H]2O)cc1OC [5,6,7,3′,4′-pentamethoxy-flavone-3-O-β-D-glucopyranoside] | – | – | 61 | 21 | – |
| COc1ccc(-c2cc(=O)c3c(OC)cc(OC)c(OC)c3o2)cc1 [5,7,8,4′-tetramethoxyflavone] | 44 | > 120 | – | – | – |
| 5,6,7,8,3′,4′-hexamethoxyflavoneglucoside | – | – | 78 | 20 | – |
| COc1ccc(-c2cc(=O)c3c(OC)c(OC)c(OC)cc3o2)cc1OC [5,6,7,3′,4′-pentamethoxyflavone] | 24 | 56 | – | – | – |
| Nomilin β-glpc | – | – | >700 | – | – |
| COc1ccc(-c2cc(=O)c3c(OC)c(OC)c(OC)c(OC)c3o2)cc1OC [5,6,7,8,3′,4′-hexamethoxyflavone] | 51 | 103 | – | – | – |
| CC(=O)O[C@H]1CC(=O)OC(C)(C)[C@@H]2CC(=O)[C@]3(C)[C@H](CC[C@@]4(C)[C@H](c5ccoc5)OC(=O)[C@H]5O[C@]543)[C@@]12C [Nomilin] | – | – | – | – | minimal effective concentration (Bitter Taste; Homo sapiens, read-out: Bitter Taste Threshold): 13 µM; times more bitter than caffeine (Bitter Taste; relative to caffeine): ~150 times; times more bitter than catechin (Bitter Taste; relative to catechin): 45 times |
| COc1ccc(-c2cc(=O)c3ccc(OC)c(OC)c3o2)cc1OC [7,8,3′,4′-tetramethoxyflavone] | 44 | > 400 | – | – | – |
| COc1ccc(-c2oc3c(OC)c(OC)c(OC)c(OC)c3c(=O)c2O[C@@H]2O[C@H](CO)[C@@H](O)[C@H](O)[C@H]2O)cc1OC [5,6,7,8,3′,4′-Hexamethoxyflavone-3-O-β-D-glucopyranoside] | – | – | 78 | 20 | – |
| CC1(C)O[C@H]2CC(=O)OC[C@]23[C@H]2CC[C@@](C)([C@@H](O[C@@H]4O[C@H](CO)[C@@H](O)[C@H](O)[C@H]4O)c4ccoc4)[C@@]4(O[C@@H]4C(=O)O)[C@]2(C)C(=O)C[C@@H]13 [Limonin-17-β-D-glucopyranoside] | – | – | 106 | 17 | limonin released from the glucopyranoside ([1]; pH 2.0, 20° C.): 0.85 % mol; limonin released from its precursor (yield) ([1]; pH 3.0, 4° C.): 0.2%; limonin released from its precursor (yield) ([1]; pH 3.0, 30° C.): ~4.0%; limonin released from the glucopyranoside ([1]; pH 3.5, 20° C.): 0.25% |
| Nomilin acid β-glpc | – | – | >800 | – | – |
| COc1ccc(-c2oc3c(OC)c(OC)c(OC)c(OC)c3c(=O)c2OC)cc1OC [3,5,6,7,8,3′,4′-heptamethoxyflavone] | 4 to 5 | 24 to 31 | – | – | – |
| Epiisoobacunoic acid 17-β-D-glucopyranoside | – | – | 42 | 16 | – |
| 5,6,7,3′,4′-pentamethoxyflavoneglucoside | – | – | 61 | 21 | – |
| COc1ccc(-c2cc(=O)c3c(OC)c(OC)c(OC)c(OC)c3o2)cc1 [5,6,7,8,4′-pentamethoxyflavone] | 19 | 93 | – | – | – |
| COc1cc(-c2cc(=O)c3c(OC)c(OC)c(OC)c(OC)c3o2)ccc1O [4′-hydroxy-3′,5,6,7,8-pentamethoxyflavone] | 6 | 25 | – | – | – |
| COc1ccc(-c2cc(=O)c3c(OC)c(OC)c(OC)cc3o2)cc1 [5,6,7,4′-tetramethoxyflavone] | – | – | – | – | minimal effective concentration (Astringency Taste; Homo sapiens, read-out: Astringency Taste Threshold): 31 µM |
| C17-epilimonin [Isolimonin] | – | – | – | – | Astringency Taste Threshold (Astringency Taste): 10 mg/L; bitter threshold concentration (Bitter Taste; water; bottled water pH 5.1, three-alternative forced-choice, eleven assessors): 10.0 µg/L |
| COc1ccc(-c2oc3c(OC)c(OC)cc(OC)c3c(=O)c2OC)cc1OC [3,5,7,8,3′,4′-hexamethoxyflavone] | 125 | > 250 | – | – | – |
| COc1ccc2c(=O)cc(-c3ccc(OC)c(OC)c3)oc2c1 [7,3′,4′-trimethoxyflavone] | 15 | > 400 | – | – | – |
| CC1(C)OC(=O)C[C@H](O)[C@]2(C)[C@H]3CC[C@@]4(C)[C@H](c5ccoc5)OC(=O)[C@H]5O[C@]54[C@]3(C)C(=O)C[C@@H]12 [Deacetylnomilin] | – | – | >106 | 13.2 | – |
| CC1(C)O[C@H]2CC(=O)OC[C@]23[C@H]2CC[C@@]4(C)[C@H](c5ccoc5)OC(=O)[C@H]5O[C@]54[C@]2(C)C(=O)C[C@@H]13 [Limonin, reference compound] | 4 | 4 | – | – | formation of isolimonin on incubation (direct epimerization) [2]: does not produce significant quantity of isolimonin; bitter threshold concentration (Bitter Taste; bottled water pH 5.1, three-alternative forced-choice, eleven assessors): 4.0 µmol/L; times more bitter than caffeine (Bitter Taste; relative to caffeine): ~200 times; times more bitter than catechin (Bitter Taste; relative to catechin): 150 times |
| COc1ccc(-c2cc(=O)c3c(OC)cc(OC)c(OC)c3o2)cc1OC [5,7,8,3′,4′-pentamethoxyflavone] | 13 | 32 | – | – | – |
| Deacetylnomilinic acid-17-β-D-glucopyranoside | – | – | 68 | 27 | – |
